Activity calls are given as the source filed them. The rule behind the calls is not given here.
Tests used:
[1] = system: Hepatitis C virus; test: Antiviral activity against Hepatitis C virus subtype 1a by replication assay; format: functional, organism-based, Hepacivirus hominis
[2] = system: Hepatitis C virus; test: Antiviral activity against Hepatitis C virus subtype 1b by replication assay; format: functional, organism-based, Hepacivirus hominis; conditions: genotype 1b
[3] = system: Hepatitis C virus; test: Binding affinity to HCV 1b NS5B polymerase; conditions: Hepatitis C virus subtype 1b
[4] = system: Hepatitis C virus subtype 1a; test: Binding affinity to HCV 1a wild type NS5B polymerase

| Structure (SMILES) | EC50 [1] [nM] | EC50 [2] [nM] | Activity [3] | Activity [4] |
| --- | --- | --- | --- | --- |
| CC[C@H](C)NC(=O)c1ccc(N2CCN(S(=O)(=O)c3ccc(OC(F)(F)F)cc3)[C@@H](C(=O)NCc3ccc(OC(F)(F)F)cc3)C2)nn1 | 87 | 7 |  |  |
| O=C(NC1CC1)c1ccc(N2CCN(S(=O)(=O)c3ccc(OC(F)(F)F)cc3)[C@@H](C(=O)NCc3ccc(OC(F)(F)F)cc3)C2)nn1 | 169 | 9 | Active | Active |
| COc1ccc(CNC(=O)C2CN(c3cc(OC)nc(OC)n3)CCN2S(=O)(=O)c2ccc(OC(F)(F)F)cc2)cc1 (racemic) | 8100 | 700 | Active |  |
| CCc1ccc(S(=O)(=O)N2CCN(c3cc(OC)nc(OC)n3)CC2C(=O)NCc2ccc(OC)cc2)cc1 (racemic) | 25000 | 2000 |  |  |
| COc1ccc(CNC(=O)C2CN(c3ccc(Cl)nn3)CCN2S(=O)(=O)c2ccc(OC(F)(F)F)cc2)cc1 (racemic) | 2200 | 700 | Active |  |
